Columns and labels:
[1] = molecular target: T1, Deoxyhypusine synthase (BmDHS) (Brugia malayi, UniProt A0A0J9XTC4); experiment: NADH fluorescence assay of DHS partial reaction with purified recombinant enzyme; type: biochemical
T1 construct: gene bma-dhps-1; full-length, recombinant BmDHS (residues 1–366)
T1 sequence (A0A0J9XTC4 1-366): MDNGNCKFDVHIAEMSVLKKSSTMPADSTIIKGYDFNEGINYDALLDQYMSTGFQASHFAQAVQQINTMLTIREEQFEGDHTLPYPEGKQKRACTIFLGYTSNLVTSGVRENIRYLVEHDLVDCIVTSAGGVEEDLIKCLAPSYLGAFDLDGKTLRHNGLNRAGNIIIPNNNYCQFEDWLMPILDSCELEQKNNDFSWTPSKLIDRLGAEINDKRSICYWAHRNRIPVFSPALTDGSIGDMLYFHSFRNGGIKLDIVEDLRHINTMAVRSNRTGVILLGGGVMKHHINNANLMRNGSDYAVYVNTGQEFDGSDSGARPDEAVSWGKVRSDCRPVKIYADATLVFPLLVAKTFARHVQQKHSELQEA

[2] = molecular target: the molecule itself; experiment: SEC; analytical gel filtration, Superdex 200 Increase 10/300, 900 ug purified BmDHS; 20 mM HEPES pH 7.5, 300 mM NaCl, 5% glycerol, 0.5 mM TCEP; calibrated with protein standards (Kav against log mass)

Row | Molecule | IC50 [1] [nM] | stoichiometry N [2]
1 | N=C(N)NCCCCCCCN [GC7] | 28 | 
2 | Brugia malayi deoxyhypusine synthase (BmDHS), full-length recombinant protein (enzyme, additional N-terminal serine residue introduced by the cloning strategy and left over after TEV cleavage of the poly-His tag; Deoxyhypusine synthase of Brugia malayi, encoded by bma-DHPS-1, full-length enzyme, residues 1-366; Expressed from pNIC28-Bsa4; Molecular weight by LC-MS 41,083.5 Da; also called B. malayi (Bm)DHS; filarial worm DHS; source: E. coli BL21(DE3)-R3-pRARE2, purified (HisTrap …)) SMDNGNCKFDVHIAEMSVLKKSSTMPADSTIIKGYDFNEGINYDALLDQYMSTGFQASHFAQAVQQINTMLTIREEQFEGDHTLPYPEGKQKRACTIFLGYTSNLVTSGVRENIRYLVEHDLVDCIVTSAGGVEEDLIKCLAPSYLGAFDLDGKTLRHNGLNRAGNIIIPNNNYCQFEDWLMPILDSCELEQKNNDFSWTPSKLIDRLGAEINDKRSICYWAHRNRIPVFSPALTDGSIGDMLYFHSFRNGGIKLDIVEDLRHINTMAVRSNRTGVILLGGGVMKHHINNANLMRNGSDYAVYVNTGQEFDGSDSGARPDEAVSWGKVRSDCRPVKIYADATLVFPLLVAKTFARHVQQKHSELQEA |  | 4
